Tested on: 3T3-L1 preadipocytes
Assay: In-vitro lipid-lowering (adipocyte-degrading) activity analysis, MTT detection
Type: cell-based
Conditions: for adipocyte lysis activity vs. negative control (Control, PBS): FIG. 2 mark a
Experimental: Preadipocytes: induced preadipocytes stage; D0-D2: 0-2nd day of induced differentiation (an early stage of differentiation); D9: the 9th day of induced differentiation (a mature adipocyte stage).
1.2 In-Vitro Lipid-Lowering Activity Analysis of the Leptin Active Peptide
Lipid degradation activity of the synthesized leptin active peptide having helix D region mutation is analyzed on a cellular level by taking a 3T3-L1 preadipocyte line as a model. Specific operations are as follows:
b: an early differentiation stage D0-D2 (0-2nd day of induced differentiation); and
c: a mature adipocyte stage D9 (the 9th day of induced differentiation);
a. leptin active peptide having helix D region mutation (PEP-D): diluted to […] with purified water and preserved at −20° C. for later use. After an experiment is started, working concentrations have 3 concentration gradients, that is, 10^−6M, 10^−9M and 10^−11M;
b. positive control. I: H-LEP, recombinant human-derived leptin protein (10221-HNAE, Beijing Sino Biological Inc.), diluted to 10^−6M with purified water and preserved at −20° C. for later use. After an experiment is started, the working concentration is 10^−9M;
c. positive control 2: Ros (rosiglitazone,R2408,Sigma), diluted to a stock solution with a concentration of 2518 μM with DMSO and preserved at −20° C. for later use. After an experiment is started, the stock solution is diluted to a working solution of 0.5 μM with cell culture fluid;
d. negative control (Control): equivalent quantity of PBS
(1) Inoculating 3T3-L1 preadipocytes in corning cell bind 96-well plates (totally inoculated with 3 plates, respectively plate a, plate b and plate c), wherein the inoculation density is 4500 cells/well; and marking, and standing and culturing at 37° C. in a 5% CO2 incubator. Each sample of each plate is operated repeatedly for 3 times, and the whole experiment is repeated for 3 times;
(2) Continuously culturing for 48 hours after the cells are merged to 100% (enabling the cells to exit from a growth cycle, and starting induced differentiation); and
i, taking out the plate a; respectively adding different amounts of leptin active peptide having helix D region mutation (PEP-D) to enable the working concentrations to be respectively 3 concentration gradients, that is, 10^−6M, 10^−9M and 10^−11M; setting 2 positive controls, a negative control (PBS) and a blank control (3 repeated holes are set for each sample), and continuously standing and culturing at 37° C. in the 5% CO2 incubator.
ii, when culturing to 45 hours (that is, 3 hours before the end of drug treatment), taking out the plate a, and measuring MTT (preadipocytes). Specific operations: adding 20 μL of 5 mg/mL of MTT solution into each well, continuously standing and culturing at 37° C. in the 5% CO2 incubator for 3 hours, sucking and discarding the culture solution in the wells, adding 150 μL of DMSO into each well, horizontally shaking for 10 min, detecting a light absorption value at 492 nm by a microplate reader, and drawing a growth curve;
i, taking out the plate b; adding the differentiation induced liquid I (D0); respectively adding the leptin active peptide having helix D region mutation (PEP-D); setting 2 positive controls, a negative control (PBS) and a blank control (3 repeated holes are set for each sample), and continuously standing and culturing at 37° C. in the 5% CO2 incubator.
ii, when culturing to 45 hours (that is, 3 hours before the end of drug treatment), taking out the plate b, and measuring MTT (at the early differentiation stage, D0-D2). Specific operations: adding 20 μL, of 5 mg/mL of MTT solution into each well; continuously standing and culturing at 37° C. in the 5% CO2 incubator for 3 hours; sucking and discarding the culture solution in the wells; adding 150 μL of DMSO into each well; horizontally shaking for 10 min; detecting a light absorption value at 492 nm by the microplate reader; and drawing a growth curve; […]

[1] = P<0.05, H-LEP 10^−9M, Ros 0.5 μM

Compound | adipocyte lysis activity vs. negative control (Control, PBS) [1] | adipocyte lysis activity vs. H-LEP (FIG. 2 mark b, P<0.05) | adipocyte lysis activity vs. Ros (FIG. 2 mark c, P<0.05) | adipocyte-degrading activity compared with the positive controls H-LEP and Ros (MTT, three cell differentiation stages (preadipocytes, early differentiation D0-D2, mature adipocyte D9), PEP-D 10^−6M, 10^−9M, 10^−11M, H-LEP 10^−9M, Ros 0.5 μM) | concentration dependence of lipid-lowering activity (MTT, working concentrations 10^−6M, 10^−9M and 10^−11M) | cell lysis effects at cell stages (preadipocytes stage, differentiation stage (D0-D2), mature adipocyte stage (D9))
H-LEP: recombinant human-derived leptin protein (10221-HNAE, Beijing Sino Biological Inc.), positive control | obviously better than that of the negative control | – | – | – | – | –
CN(CCOc1ccc(CC2SC(=O)NC2=O)cc1)c1ccccn1 (stereo not shown) [Ros, rosiglitazone, reference compound] | obviously better than that of the negative control | – | – | – | – | –
STEVVALDGLQGSLQTMLLQLEYS (An amino acid sequence of the leptin active peptide having helix D region mutation) [PEP-D] | – | obviously better than that of the H-LEP | obviously better than that of the Ros | obviously better than that of positive control-human-derived leptin protein (H-LEP) and a commercially available drug rosiglitazone (Ros) | obvious concentration dependence | obvious cell lysis effects at three stages
